Molecules are shown by their SMILES. pIC50: −log10 of the molar value. Marks after values point to notes of the source that are not given here.

Results on three compounds are retold here after patent publication US20090233910A1, “Npy antagonists, preparation and uses” (CEREP, priority 2005, published 2009).

Assay [1] concerns the target T1, NPY Y1 receptor (Homo sapiens, UniProt P25929).
T1 construct: host or cells: SK-N-MC cells (whole-cell suspension)
T1 sequence (P25929 1-384): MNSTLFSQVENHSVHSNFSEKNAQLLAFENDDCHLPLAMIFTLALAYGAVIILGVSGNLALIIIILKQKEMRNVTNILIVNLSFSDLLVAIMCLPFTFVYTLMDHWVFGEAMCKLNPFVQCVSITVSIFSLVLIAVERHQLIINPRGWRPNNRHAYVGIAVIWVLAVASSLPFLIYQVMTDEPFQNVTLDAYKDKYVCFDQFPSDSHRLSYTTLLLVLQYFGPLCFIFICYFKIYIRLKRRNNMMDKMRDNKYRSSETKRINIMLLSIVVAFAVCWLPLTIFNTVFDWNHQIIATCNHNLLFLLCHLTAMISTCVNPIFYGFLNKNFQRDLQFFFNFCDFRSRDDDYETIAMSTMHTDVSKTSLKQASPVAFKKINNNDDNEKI
The experiment in a line: cAMP measurement test in SK-N-MC cells (shift of NPY dose-effect curves, forskoline-stimulated). The assay is classed as cell-based. As to conditions: Schild analysis vs NPY, read-out: pA2 Y1 (converted). As to the method:
The SK-N-MC cells are cultured in 96-well plates. After aspirating the culture medium, the cells are washed with a phosphate buffer pH 7.4 (Invitrogen ref. 14190-094), then lifted with a Versene solution (Invitrogen, ref 15040-033). The cells are centrifuged at 500×g for 10 minutes at 4° C. They are resuspended in a stimulation buffer containing isobutyl-methyl-xanthine in sufficient concentration to inhibit the phosphodiesterases (Flashplate kit, Perkin Elmer). The tested compounds are added 10 minutes before depositing the NPY (Bachem, H3322) in variable concentration, then the 300 nM forskoline (Sigma, F6886). The cells are in cubated 1 hour at ambient temperature to allow cAMP production whose levels are measured using the Flashplate method after 2 hours incubation with the cAMP tracer [^125I]. The results are expressed in pA2 form observing the displacement of NPY dose-effect curves in the absence and presence of increasing concentrations of test compound [Schild, 1949, pAx and competitive drug antagonism, Br. J. Pharmacol., 4, 277-280].

Assay [2] concerns the target T1, NPY Y1 receptor. The experiment in a line: Binding test to the NPY Y1 receptor ([125I]-PYY, SK-N-MC cell suspension). As to conditions: SK-N-MC cells, 25 pM [125I]-PYY. Here is the method:
The SK-N-MC cells (ATCC HBT10) are cultured at 37° C. in MEM medium (minimum essential medium) free of phenol red (Invitrogen ref. 04194565M) containing 10% foetal calf serum (Invitrogen ref. 10270-106), 1% non-essential aminoacids (Invitrogen ref. 11140-035), 1% sodium pyruvate (Invitrogen ref. 11360-039), 1% glutamine (Invitrogen ref. 25030-032), 100 IU/ml of penicillin and 100 μg/ml of streptomycin (Invitrogen ref. 15140-122) in a humid atmosphere containing 5% CO2.
After aspirating the culture medium, the cells are washed with a phosphate buffer pH 7.4 (Invitrogen ref. 14190-094), then lifted with a Versene solution (Invitrogen, ref 15040-033). The cells are centrifuged at 500×g for 10 minutes at 4° C. then resuspended in a freeze buffer pH 7.4 containing 50 mM HEPES (N-2-hydroxyethylpiperazine-N′-2-ethanesulfonic acid), 145 mM sodium chloride, 2.6 mM calcium chloride, 1 mM magnesium chloride, 10 mM glucose, and 1 mg/ml bovine albumin. The cell suspension is aliquoted into twenty million cells per milliliter of buffer and stored at −70° C.
The cell suspension is incubated 2 hours at 37° C. in an incubation buffer pH 7.4 containing 50 mM HEPES, 2.5 mM calcium chloride, 1 mM magnesium chloride, 0.025% sodium azide, 1 mg/ml bovine albumin and 25 pM [^125I]-PYY (Perkin Elmer, NEX341). The reaction is halted by filtering through a GF/B filter pre-treated with 0.3% PEI, and washed three times with 1 ml of 50 mM TRIS buffer [tris(hydroxymethyl)aminomethane]/HCl, pH 7.4. The radioactivity deposited on the filter is measured by liquid scintillation count (TopCount, Packard). Non-specific binding is determined in the presence of 1 μM NPY (Bachem, H3322). Results are expressed as IC50 values in nM calculated by non-linear regression with 4 parameters.

A further assay relates to fasting mice. Kind of assay: Food intake by fasting mice. It is filed as in vivo. As to conditions: fasting male OF1 mice, 30 mg/kg ip. As to the method:
The day before the experiment at 16 h, male OF1 mice (Charles River, France) with body weight varying between 20 and 25 g, are left to fast in individual cages with unlimited drink water. On the day of the experiment, at 9 h30±15 min, a control batch of 10 mice was given the solvent (5% DMSO, Merck, 1.02931.1000, 5% cremophor EL, Sigma C-5135, physiological saline solution to complete to volume) via intra peritoneal route or per os in a volume of 10 ml/kg, and the other batches of 10 mice were given the products to be tested dissolved in the solvent (10 or 30 mg/kg in a volume of 10 ml/kg ip ou po). Individual feed troughs filled with food (A04, UAR, France) were weighed then placed in the cages, exactly 30 min or 60.min after treating the mice ip or per os, respectively. The feed troughs were then weighed 1 h, 2 h, 3 h, 4 h and when applicable 6 h and 24 h after placing the feed troughs in the cages. Food consumptions are expressed in grams, as a mean±standard error (S.E.M). (n=10). Statistical analysis used ANOVA followed by Dunnett's multiple comparison test. The level of significance is obtained for p<0.05.

Turning to `CCOc1cc(NC(=O)NC(CC)CC)ccc1Oc1ccc(NC(=O)c2ccc(O[C@H]3C[C@H]4CC[C@@H](C3)N4C)cc2)cc1` [Example 40, N-(4-{2-Ethoxy-4-[3-(1-ethyl-propyl)-ureido]-phenoxy}-phenyl)-4-(8-methyl-8-aza-bicyclo[3.2.1]oct-(3-endo)-yloxy)-benzamide], the Kb on NPY Y1 receptor [1] was 2.24 nM. Besides, the pIC50 on NPY Y1 receptor [2] is 8.77.

For the compound `CCC(CC)NC(=O)Nc1ccc(Oc2cnc(NC(=O)c3ccc(OC4CCN(C(C)C)CC4)cc3)s2)c(OC)c1` [Example 2, N-(5-{4-[3-(1-Ethyl-propyl)-ureido]-2-methoxy-phenoxy}-thiazol-2-yl)-4-(1-isopropyl-piperidin-4-yloxy)-benzamide], the Kb on NPY Y1 receptor [1] was 10 nM. The negative-log IC50 (pIC50) on NPY Y1 receptor [2] was 7.82.

Consider `CCCCN1CCC(Oc2ccc(C(=O)Nc3ccc(Oc4cc(F)c(NC(=O)NC(CC)CC)cc4OC)cc3)cc2C)CC1` [Example 312, 4-(1-Butyl-piperidin-4-yloxy)-N-(4-{4-[3-(1-ethyl-propyl)-ureido]-5-fluoro-2-methoxy-phenoxy}-phenyl)-3-methyl-benzamide], for which, in the assay with fasting mice (0-1 h), the “Accumulated inhibition of food intake after ip administering of 30 mg/kg, 0-1 h” value is listed as 42%*. The “Accumulated inhibition of food intake after ip administering of 30 mg/kg, 0-2 h” value with fasting mice (0-2 h) was 21%. Further, in the assay on fasting mice (0-3 h), the “Accumulated inhibition of food intake after ip administering of 30 mg/kg, 0-3 h” value was determined as 33%**. Further, in the assay with fasting mice (0-4 h), the “Accumulated inhibition of food intake after ip administering of 30 mg/kg, 0-4 h” value is on record as 27%*.

A word on the pIC50: it is the IC50 on a negative log10 scale, so that one unit is a factor of ten. Read a high pIC50 as a small IC50.
